Measurements taken from publication PMC10355216, “The C-terminal tail of CSNAP attenuates the CSN complex” (Life Science Alliance, 2023).
Where no end group is shown, it is not given here. [ ]: non-standard residue; d: D form. Aib = CC(C)(N)C(=O)O

Assays:
CSN^ΔCSNAP complex = assay: Peptide array screen of C-CSNAP peptides with rCSN^ΔCSNAP; format: binding; details: average of 5 experiments;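 further: Array-printed peptides incubated with 0.5 µM CSN^ΔCSNAP, bound complex detected by anti-CSN3 antibody plus HRP-linked secondary, spot intensity expressed relative to the parent reference peptide spot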
Procedure: Peptide array screen of modified C-CSNAP peptides. C-CSNAP peptide and its derivatives were printed on a microarray. The array was blocked and incubated with or without the CSN∆CSNAP complex and probed using an anti-CSN3 antibody and HRP-conjugated secondary antibody. To assess non-specific binding of the antibodies to the array, anti-CSN3 and anti-GAR-HRP were used without the addition of the COP9 signalosome complex (CSN). Signal intensity of each spot was measured and normalized to the intensity of the spot of C-CSNAP (A1). Measured values for each spot were averaged from six arrays and plotted with standard errors SEM.
(§1) Intensity values are normalized to the intensity of the 16AA C-CSNAP peptide (A1) on each array from three independent experiments in duplicates, and averages from the six replicates are calculated with SEM.
(§2) Optimization of C-CSNAP sequence for enhanced binding to recombinant CSN^ΔCSNAP was screened by printing the modified sequences of CSNAP or C-CSNAP (Phe to Trp, Asp to Glu, Ala screen, D-amino acid screen, N-α-methylation, and Aib incorporation on INTAVIS Celluspots array [2 × 384spots]). The array was blocked with 5% skim milk in TBS-0.5% Tween 20 (TBS-T) for 4 h at room temperature, washed three times in TBS-T, and then incubated with 0.5 μM CSN^ΔCSNAP in 5% milk–TBS-T. Bound CSN^ΔCSNAP was visualized by incubating with anti-CSN3 (ab79698) antibody (1:10,000, overnight) and goat-anti-rabbit-HRP secondary antibody (1:10,000, 1 h).

recombinant CSN complex = assay: Peptide array screen of C-CSNAP peptides with recombinant CSN (rCSN^WT); format: binding; details: for Average fold change, intensities as fold of C-CSNAP (A1): rCSN^WT on INTAVIS Celluspots array, anti-CSN3 and HRP secondary antibody, average of six replicates (three independent experiments in duplicates); for intensities as fold of C-CSNAP (A1), Experiment #1 left / intensities as fold of C-CSNAP (A1), Experiment #1 right / intensities as fold of C-CSNAP (A1), Experiment #2 left / intensities as fold of C-CSNAP (A1), Experiment #2 right / intensities as fold of C-CSNAP (A1), Experiment #3 left / intensities as fold of C-CSNAP (A1), Experiment #3 right: rCSN^WT peptide array; for intensities as fold of C-CSNAP (A1), Experiment #1 left: replicate: Experiment #1, left array; for intensities as fold of C-CSNAP (A1), Experiment #1 right: replicate: Experiment #1, right array; for intensities as fold of C-CSNAP (A1), Experiment #2 left: replicate: Experiment #2, left array; for intensities as fold of C-CSNAP (A1), Experiment #2 right: replicate: Experiment #2, right array; for intensities as fold of C-CSNAP (A1), Experiment #3 left: replicate: Experiment #3, left array; for intensities as fold of C-CSNAP (A1), Experiment #3 right: replicate: Experiment #3, right array; for Average fold change: peptide array with rCSN, average of 3 experiments, left and right (n = 6), fold of C-CSNAP (A1);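 on all read-outs here: densitometric signal of CSN bound to each synthesized peptide spot, with an antibody-only array lacking CSN run to exclude non-specific binding, higher values meaning stronger binding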
Procedure: To generate an optimized C-CSNAP peptide, we used the peptide array methodology. The array was designed to screen for the optimal peptide length, sequence, and stability (Fig 3A). A recombinant CSN complex was expressed, purified, and screened for binding to the peptide array by using an anti-CSN3 antibody. To rule out non-specific binding of the probing antibody, a control experiment was carried out without the addition of the CSN complex (Fig 3A right panel).
C-CSNAP peptide and its derivatives were synthesized on a microarray. The array was blocked and incubated with or without the COP9 signalosome complex (CSN) and probed using an anti-CSN3 antibody and HRP-conjugated secondary antibody. To assess non-specific binding of the antibodies to the array, anti-CSN3 and anti-GAR–HRP were used without the addition of the CSN. Signal intensity of each spot was measured and normalized to the intensity of the spot of C-CSNAP (A1). Measured values for each spot were averaged from six arrays and plotted with SEM. […] (A) A representative image of the peptide array (left) and the background (right). (B) Elongation of the C-terminal 16 amino acids (green) with one residue at a time based on the full-length sequence. […] (F) Single D-amino acid substitution at various positions.
as §1, §2

[1] = peptide array with rCSN^ΔCSNAP, left and right (n = 10), fold of C-CSNAP (A1)
[2] = peptide array, rCSN^ΔCSNAP, left and right spots

Substance	Average fold change, intensities as fold of C-CSNAP (A1) (recombinant CSN complex)	Average fold change (CSN^ΔCSNAP complex; [2])	further results
AANEKAVHADFFNDFEDLFDDDDIQ [Position A10, CSNAP residues 33-57]	1.0826 fold of C-CSNAP (A1)		Average fold change (CSN^ΔCSNAP complex; [1]): 0.9871 fold
ADFFNDFEDLFDDDDIQ [A 2, CSNAP residues 41-57]	0.9705 fold of C-CSNAP (A1)		Average fold change (CSN^ΔCSNAP complex; [1]): 0.9058 fold
DAFNDFEDLFDDDDIQ [Position B21, C-CSNAP, Ala substitution F43A]	0.8509 fold of C-CSNAP (A1)		Average fold change (CSN^ΔCSNAP complex; [1]): 1.1048 fold
DFF-Aib-DFED-Aib-FDDDI-Aib-Q [Position H16, C-CSNAP with Aib incorporation (45,50,56)]	0.4930 fold of C-CSNAP (A1)		Average fold change, intensities as fold of C-CSNAP (A1) (CSN^ΔCSNAP complex; [2]): 0.8483 fold; intensities as fold of C-CSNAP (A1), Experiment #1 left (recombinant CSN complex): 0.3868 fold of C-CSNAP (A1); intensities as fold of C-CSNAP (A1), Experiment #1 right (recombinant CSN complex): 0.3074 fold of C-CSNAP (A1); intensities as fold of C-CSNAP (A1), Experiment #2 left (recombinant CSN complex): 0.3253 fold of C-CSNAP (A1); intensities as fold of C-CSNAP (A1), Experiment #2 right (recombinant CSN complex): 0.4113 fold of C-CSNAP (A1); intensities as fold of C-CSNAP (A1), Experiment #3 left (recombinant CSN complex): 0.4290 fold of C-CSNAP (A1); intensities as fold of C-CSNAP (A1), Experiment #3 right (recombinant CSN complex): 1.0982 fold of C-CSNAP (A1)
DFFN-Aib-FEDLF-Aib-DDDI-Aib [Position H17, C-CSNAP with Aib incorporation (46,52,57)]	0.3449 fold of C-CSNAP (A1)		Average fold change, intensities as fold of C-CSNAP (A1) (CSN^ΔCSNAP complex; [2]): 0.7091 fold; intensities as fold of C-CSNAP (A1), Experiment #1 left (recombinant CSN complex): 0.3158 fold of C-CSNAP (A1); intensities as fold of C-CSNAP (A1), Experiment #1 right (recombinant CSN complex): 0.2689 fold of C-CSNAP (A1); intensities as fold of C-CSNAP (A1), Experiment #2 left (recombinant CSN complex): 0.1472 fold of C-CSNAP (A1); intensities as fold of C-CSNAP (A1), Experiment #2 right (recombinant CSN complex): 0.2740 fold of C-CSNAP (A1); intensities as fold of C-CSNAP (A1), Experiment #3 left (recombinant CSN complex): 0.2292 fold of C-CSNAP (A1); intensities as fold of C-CSNAP (A1), Experiment #3 right (recombinant CSN complex): 0.8343 fold of C-CSNAP (A1)
DFFN-Aib-FEDLF-Aib-DDDIQ-Aib [Position H15, C-CSNAP with Aib incorporation (46,52,58)]	0.4542 fold of C-CSNAP (A1)		Average fold change, intensities as fold of C-CSNAP (A1) (CSN^ΔCSNAP complex; [2]): 0.5199 fold; intensities as fold of C-CSNAP (A1), Experiment #1 left (recombinant CSN complex): 0.3458 fold of C-CSNAP (A1); intensities as fold of C-CSNAP (A1), Experiment #1 right (recombinant CSN complex): 0.3290 fold of C-CSNAP (A1); intensities as fold of C-CSNAP (A1), Experiment #2 left (recombinant CSN complex): 0.2291 fold of C-CSNAP (A1); intensities as fold of C-CSNAP (A1), Experiment #2 right (recombinant CSN complex): 0.4652 fold of C-CSNAP (A1); intensities as fold of C-CSNAP (A1), Experiment #3 left (recombinant CSN complex): 0.2799 fold of C-CSNAP (A1); intensities as fold of C-CSNAP (A1), Experiment #3 right (recombinant CSN complex): 1.0762 fold of C-CSNAP (A1)
DFFNDFEDAFDDDDIQ [C 4, C-CSNAP, Ala substitution L50A]	0.5335 fold of C-CSNAP (A1)		Average fold change (CSN^ΔCSNAP complex; [1]): 0.8879 fold
DFFNDFEDLFDDDDAQ [Position C10, C-CSNAP, Ala substitution I56A]	1.1392 fold of C-CSNAP (A1)		Average fold change (CSN^ΔCSNAP complex; [1]): 1.2151 fold
DFFNDFEDLFDDDEIQ [D 9, C-CSNAP, Asp to Glu substitution D55E]	1.0265 fold of C-CSNAP (A1)	1.0696 fold of C-CSNAP (A1)	
DFFNDFEDLFDDEDIQ [D 8, C-CSNAP, Asp to Glu substitution D54E]	0.9836 fold of C-CSNAP (A1)	1.1238 fold of C-CSNAP (A1)	
DFFNDFEDLFDD[Aib]DIQ[Aib] [Position H18, C-CSNAP with Aib incorporation (54,58)]	0.2987 fold of C-CSNAP (A1)		Average fold change, intensities as fold of C-CSNAP (A1) (CSN^ΔCSNAP complex; [2]): 1.0167 fold; intensities as fold of C-CSNAP (A1), Experiment #1 left (recombinant CSN complex): 0.3071 fold of C-CSNAP (A1); intensities as fold of C-CSNAP (A1), Experiment #1 right (recombinant CSN complex): 0.2334 fold of C-CSNAP (A1); intensities as fold of C-CSNAP (A1), Experiment #2 left (recombinant CSN complex): 0.1973 fold of C-CSNAP (A1); intensities as fold of C-CSNAP (A1), Experiment #2 right (recombinant CSN complex): 0.2444 fold of C-CSNAP (A1); intensities as fold of C-CSNAP (A1), Experiment #3 left (recombinant CSN complex): 0.2003 fold of C-CSNAP (A1); intensities as fold of C-CSNAP (A1), Experiment #3 right (recombinant CSN complex): 0.6096 fold of C-CSNAP (A1)
DFFNDFEDLFDEDDIQ [D 7, C-CSNAP, Asp to Glu substitution D53E]	0.9008 fold of C-CSNAP (A1)	1.1500 fold of C-CSNAP (A1)	
DFFNDFEDLFEDDDIQ [D 6, C-CSNAP, Asp to Glu substitution D52E]	0.9809 fold of C-CSNAP (A1)	1.1581 fold of C-CSNAP (A1)	
DFFNDFEDLFEDDEIQ [E 3, C-CSNAP, Asp to Glu substitution D52,55E]	0.8879 fold of C-CSNAP (A1)	0.8137 fold of C-CSNAP (A1)	
DFFNDFEDLFEDEDIQ [E 2, C-CSNAP, Asp to Glu substitution D52,54E]	0.8694 fold of C-CSNAP (A1)	0.9955 fold of C-CSNAP (A1)	
DFFNDFEDLFEDEEIQ [D52,53,56E]		1.1721 fold of C-CSNAP (A1)	Average fold change (recombinant CSN complex): 0.6027 fold
DFFNDFEDLFEEDDIQ [E 1, C-CSNAP, Asp to Glu substitution D52,53E]	0.6914 fold of C-CSNAP (A1)	1.1244 fold of C-CSNAP (A1)	
DFFNDFEDLFEEDEIQ [D52,53,55E]		1.3267 fold of C-CSNAP (A1)	Average fold change (recombinant CSN complex): 0.6917 fold
DFFNDFEDLFEEEDIQ [D52,53,54E]		1.1046 fold of C-CSNAP (A1)	

Substance	Average fold change, intensities as fold of C-CSNAP (A1) (recombinant CSN complex)	Average fold change (CSN^ΔCSNAP complex; [2])	further results
DFFNDFEDLFEEEEIQ [D52,53,54,55E]		1.3020 fold of C-CSNAP (A1)	Average fold change (recombinant CSN complex): 0.7255 fold
DFFNDFEDLWDDDDIQ [Position C15, C-CSNAP, Phe to Trp substitution F51W]	0.8159 fold of C-CSNAP (A1)	1.0302 fold of C-CSNAP (A1)	
DFFNDFEELFDDDDIQ [D 5, C-CSNAP, Asp to Glu substitution D49E]	0.8086 fold of C-CSNAP (A1)	0.9235 fold of C-CSNAP (A1)	
DFFNDFEELFDDDEIQ [Position D24, C-CSNAP, Asp to Glu substitution D49,55E]	0.5347 fold of C-CSNAP (A1)	1.2175 fold of C-CSNAP (A1)	
DFFNDFEELFDDEDIQ [Position D23, C-CSNAP, Asp to Glu substitution D49,54E]	0.5825 fold of C-CSNAP (A1)	1.0923 fold of C-CSNAP (A1)	
DFFNDFEELFDEDDIQ [Position D22, C-CSNAP, Asp to Glu substitution D49,53E]	0.6642 fold of C-CSNAP (A1)	1.3252 fold of C-CSNAP (A1)	
DFFNDFEELFEDDDIQ [Position D21, C-CSNAP, Asp to Glu substitution D49,52E]	0.6335 fold of C-CSNAP (A1)	1.3626 fold of C-CSNAP (A1)	
DFFNDFEELFEDDEIQ [Position E19, C-CSNAP, Asp to Glu substitution D49,52,55E]	0.6448 fold of C-CSNAP (A1)	1.0909 fold of C-CSNAP (A1)	
DFFNDFEELFEDEDIQ [Position E18, C-CSNAP, Asp to Glu substitution D49,52,54E]	0.6310 fold of C-CSNAP (A1)	0.9681 fold of C-CSNAP (A1)	
DFFNDFEELFEEDDIQ [Position E17, C-CSNAP, Asp to Glu substitution D49,52,53E]	0.6206 fold of C-CSNAP (A1)	1.2373 fold of C-CSNAP (A1)	
DFFNDFEELFEEDEIQ [D49,52,53,55E]		1.1749 fold of C-CSNAP (A1)	Average fold change (recombinant CSN complex): 0.6996 fold
DFFNDFEELFEEEDIQ [D49,52,53,54E]		0.9844 fold of C-CSNAP (A1)	Average fold change (recombinant CSN complex): 0.6224 fold
DFFNDFEELFEEEEIQ [D49,52,53,54,55E]		1.1796 fold of C-CSNAP (A1)	Average fold change (recombinant CSN complex): 0.6658 fold
DFFNDWEDLFDDDDIQ [Position C14, C-CSNAP, Phe to Trp substitution F47W]	0.9440 fold of C-CSNAP (A1)	1.1204 fold of C-CSNAP (A1)	
DFFNEFEDLFDDDDIQ [D 4, C-CSNAP, Asp to Glu substitution D46E]	1.0255 fold of C-CSNAP (A1)	1.0457 fold of C-CSNAP (A1)	
DFFNEFEDLFDDDEIQ [Position D20, C-CSNAP, Asp to Glu substitution D46,55E]	0.7799 fold of C-CSNAP (A1)	1.3581 fold of C-CSNAP (A1)	
DFFNEFEDLFDDEDIQ [Position D19, C-CSNAP, Asp to Glu substitution D46,54E]	0.6165 fold of C-CSNAP (A1)	1.1127 fold of C-CSNAP (A1)	
DFFNEFEDLFDEDDIQ [Position D18, C-CSNAP, Asp to Glu substitution D46,53E]	0.5559 fold of C-CSNAP (A1)	1.0532 fold of C-CSNAP (A1)	
DFFNEFEDLFEDDDIQ [Position D17, C-CSNAP, Asp to Glu substitution D46,52E]	0.7655 fold of C-CSNAP (A1)	1.1441 fold of C-CSNAP (A1)	
